# According to publication PMC8230281, “Improving the Pharmacological Properties of Ciclopirox for Its Use in Congenital Erythropoietic Porphyria” (Journal of Personalized Medicine, 2021):
# Key:
# [1] = test system: cellular models of the disease, obtained from HEK cells by CRISPR/Cas9 editing; test: Equivalent cellular studies in cellular models of CEP (data not shown); format: cell-based
# Description: We first tested the derivatives on different cellular models of the disease, obtained from HEK cells by CRISPR/Cas9 editing. The selected mutations (UROIIIS^C73R and UROIIIS^P248Q) result in destabilized proteins and severe phenotypes. […] Thus, the reported activity for CPXpom is attributed to a proper hydrolysis of the compound into the active species.
# [2] = GI toxicity in WT mice after administration of CPX or CPXpom; format: in vivo; details: for macroscopic inflammation of the gut: mice, Figure 1; for GI toxicity: 100 mg/kg
# [3] = test system: mouse model of the disease (UROIIIS^P248Q/P248Q); test: Oral gavage for 30 days in mouse model of CEP; format: in vivo; details: UROIIIS^P248Q/P248Q mice; for reduction in total UROI levels in serum: oral gavage, after 30 days, equivalent dose
# Description: The compound ciclopirox (CPX, 6-cyclohexyl-1-hydroxy-4-methyl-2(1H)-pyridinone) was purchased from Santa Cruz Biotechnology (sc-204688), and phosphorylated ciclopirox (CPXpom, O-phosphoryl-methylen-6-cyclohexyl-1-hydroxy-4-metyl-2(1H)-Pyridinone) was synthetized by Charnwood Molecular Ltd. PD of CPX was studied in HEK CRISPR Cas UROIIIS-C73R and UROIIIS-P248Q cell lines. Briefly, 60 µM dose of CPX and phosphorylated CPX was administrated for 30 min and 1, 2, and 4 h of exposition. Then, the cells were counted and harvested. Samples were treated by the same protocol for the porphyrin extraction. Mouse experiments. For the PK experiments and for each bolus administration method 10 WT ICR (CD-1®) outbred mice (Envigo) were used. Serum was collected after the administration at 1, 2, 4, 6 (7), 12, and 24 h. At 48 (36) h, the mice were sacrificed. Triplicates were collected for each data point. Urine samples were collected at the same interval. In the PD experiments, the concentration of porphyrins was measured from circulating blood. Blood samples were extracted from the submandibular vein every week, and mice were weighed before each extraction. Mice were treated with oral CPX by gavage to evaluate CPX dose efficiency. […] All work performed with animals was approved by the competent authority (Diputación Foral de Bizkaia) following European and Spanish directives. The CIC bioGUNE Animal Facility is accredited by AAALAC Intl.
# (§1) Murine blood samples were obtained from the submandibular vein and collected in ethylenediaminetetraacetic acid tubes; samples were aliquoted and stored in a freezer at −80 °C. […] The samples were then analyzed by HPLC.
# (§2) Porphyrins from cell lines were separated by HPLC analysis on a ODS Hypersil C18 column (5 µm, 3 mm × 200 mm; Thermo Scientific, Waltham, MA, US) in a HPLC chromatograph (Shimadzu, Long Beach, CA, US). […] All analyses were performed at 20 °C, and porphyrins were detected by fluorescence with an excitation wavelength 405 nm and emission wavelength 610 nm. […]
# [4] = test system: HEK CRISPR Cas UROIIIS-P248Q cell line; test: URO I levels in HEK CRISPR/Cas9 cellular model of CEP (UROIIIS-P248Q), HPLC; format: cell-based; details: UROIIIS^P248Q HEK cells; 60 µM
# Description: (§3) The compound ciclopirox (CPX, 6-cyclohexyl-1-hydroxy-4-methyl-2(1H)-pyridinone) was purchased from Santa Cruz Biotechnology (sc-204688), and phosphorylated ciclopirox (CPXpom, O-phosphoryl-methylen-6-cyclohexyl-1-hydroxy-4-metyl-2(1H)-Pyridinone) was synthetized by Charnwood Molecular Ltd. PD of CPX was studied in HEK CRISPR Cas UROIIIS-C73R and UROIIIS-P248Q cell lines. Briefly, 60 µM dose of CPX and phosphorylated CPX was administrated for 30 min and 1, 2, and 4 h of exposition. Then, the cells were counted and harvested. Samples were treated by the same protocol for the porphyrin extraction. Mouse experiments. For the PK experiments and for each bolus administration method 10 WT ICR (CD-1®) outbred mice (Envigo) were used. […] In the PD experiments, the concentration of porphyrins was measured from circulating blood. […]
# as §1, §2
# [5] = Serum CPX pharmacokinetics in mice after single IV or oral dose, quantified by NMR; format: in vivo
# Description: as §3, with “used. Serum was collected after the administration at 1, 2, 4, 6 (7), 12, and 24 h. At 48 (36) h, the mice were sacrificed. Triplicates were collected for each data point.” for “used.”
# NMR data were collected at on an 800-MHz Bruker Avance III spectrometer equipped with a cryoprobe and on a 600-MHz Bruker Avance III US2 spectrometer. […] Metabolic quantification was carried out at peaks’ integral against the added internal reference compound. […]
# Non-compartmental serum and urine pharmacokinetic parameters for CPXpom and CPX were determined using SimBiology module in MATLAB. […]
# murine models of CEP = test system: murine models of CEP; design: method as in PMID 30232228; details: cited from earlier work
# [6] = test system: HEK CRISPR Cas UROIIIS-C73R cell line; test: URO I levels in HEK CRISPR/Cas9 cellular model of CEP (UROIIIS-C73R), HPLC; format: cell-based; details: UROIIIS^C73R HEK cells; 60 µM; 30 min to 4 h
# Description: as §3, §1, §2
# [7] = design: method as in PMID 2989308; details: weak acidic N-hydroxyl group of the 1-hydroxy-2(1H)-pyridones; cited from earlier work
# [8] = design: method as in PMID 7028047; details: rats; 4 weeks; doses up to 300 mg/kg; cited from earlier work
# [9] = design: method as in PMID 7197542; details: oral; 1 mg/kg rats, 10-15 mg/kg dogs; cited from earlier work
compound,measurement,setting,value
NC(Cn1ccc(=O)c(O)c1)C(=O)O (stereo not shown) [mimosine],activity in cellular models of CEP,[1],no activity
"Cc1cc(C2CCCCC2)n(O)c(=O)c1 [CPX, 6-cyclohexyl-1-hydroxy-4-methyl-2(1H)-pyridinone]",macroscopic inflammation of the gut,[2],Macroscopic inflammation can be observed
same,GI toxicity,"[2]; mouse, in vivo, po",results in GI toxicity
same,reduction in total UROI levels in serum,[3],40%
same,levels of the toxic by-product URO I,[4],significantly reduced
same,CPXFREE,"[5]; Table S3, serum, IV, dose 10 mg/kg, CPXfree = CPXtot − CPXglu",< 21.4%
same,splenomegaly,murine models of CEP; indirect measure of reduction in circulating porphyrins,reduced splenomegaly
same,"levels of the toxic porphyrins, particularly URO I and COPRO I","murine models of CEP; liver, red blood cells, and urine",significant decrease
same,levels of the toxic by-product URO I,[6],significantly reduced
same,pK,[7],7
"Cc1cc(C2CCCCC2)n(OCOP(=O)(O)O)c(=O)c1 [CPXpom, O-phosphoryl-methylen-6-cyclohexyl-1-hydroxy-4-metyl-2(1H)-Pyridinone]",GI toxicity,"[2]; WT mice, oral (gavage)",does not result in GI toxicity
same,macroscopic inflammation of the gut,[2],no macroscopic inflammation
same,reduction in total UROI levels in serum,[3],5%
same,GI toxicity,[3]; orally by gavage for 30 days,no GI toxicity was observed
same,levels of the toxic by-product URO I,[4],significantly reduced
same,circulating concentration of CPXpom (NMR spectrum of serum),[5]; after CPXpom administration,below the detection limit
same,levels of the toxic by-product URO I,[6],significantly reduced
Cc1cc(C2CCCCC2)n(O)c(=O)c1 [ciclopirox-olamine],gastric findings,[8],gastric irritation and chronic gastritis
same,elimination in urine (time),[9],3 to 6 h
